The results in this text go back to article PMC11249646, “Small-Molecule Disruptors of the Interaction between Calcium- and Integrin-Binding Protein 1 and Integrin αIIbβ3 as Novel Antiplatelet Agents” (ACS Pharmacology & Translational Science, 2024).

The structures appear in SMILES notation. Where two headings read alike, the source gives them in different places.

The target of assay [1] is T1, CIB1 and αIIb interaction (CIB1-GST : F-αIIb peptide) (Homo sapiens, UniProt Q99828).
T1 construct: made in house; host or cells: BL-21 plus RIL cells (E. coli)
T1 sequence (Q99828 1-191): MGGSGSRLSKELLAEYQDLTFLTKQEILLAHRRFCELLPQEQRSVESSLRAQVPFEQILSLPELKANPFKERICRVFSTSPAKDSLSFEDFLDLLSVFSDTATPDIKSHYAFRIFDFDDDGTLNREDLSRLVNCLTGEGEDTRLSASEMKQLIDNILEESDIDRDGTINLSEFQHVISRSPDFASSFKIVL
Kind of assay: FP assay, 1536-well qHTS format (primary and confirmatory screen). Conditions: for Curve Class (confirmatory screen): qHTS curve class. It is filed as binding. A general note: Quantitative high-throughput screening tests each substance at several concentrations.

Assay [2] deals with T2, GST-CIB1 : F-scrambled peptide (Homo sapiens, UniProt Q99828).
T2 construct: made in house; host or cells: BL-21 plus RIL cells (E. coli)
T2 sequence (Q99828 1-191): T1 sequence (Q99828 1-191)
Kind of assay: FP scrambled-peptide counter screen, 1536-well format. The format is binding. The settings on record: for Curve Class (counterscreen): qHTS curve class; for IC50: read-out: IC50 [μM] (counterscreen); for Confirm? (counterscreen): YES/NO. For orientation: A counterscreen serves to expose hits that act by an unwanted route or on another target.

[3] abbreviates: confirmatory screen, negative sign = inhibitory curve.
Where [4] appears, read: confirmatory screen, read-out: IC50 [μM] (confirmatory screen).
[5] abbreviates: qHTS FP screen hits, Table S2, negative = inhibition.
The mark [6] stands for this setting: qHTS FP screen hits, Table S2, one class per curve where COUNT > 1, negative sign = inhibitory curve.
The mark [7] stands for this setting: qHTS FP screen hits, Table S2, read-out: IC50.
Setting [8] is: counterscreen, negative sign = inhibitory curve.
Setting [9] is: qHTS primary screen hits, Table S2, negative = inhibition.
Setting [10] is: qHTS primary screen hits, Table S2, negative sign = inhibitory curve, several classes where COUNT > 1.
Where [11] appears, read: qHTS primary screen hits, Table S2, read-out: IC50.
The mark [12] stands for this setting: Table S3, confirmatory screen, a negative sign marks inhibitory curves.
[13] abbreviates: Table S3, confirmatory screen, negative = inhibition.
Where [14] appears, read: Table S3, counterscreen, a negative sign marks inhibitory curves.
Where [15] appears, read: Table S3, counterscreen, negative = inhibition.

As for `C=C1[C@@H](C)[C@H]2[C@H](Cc3ccccc3)NC(=O)[C@]23OC(=O)/C=C/C(=O)CCC[C@@H](C)C/C=C/[C@H]3[C@@H]1O` [NCGC00388356-01], in assay [1] (confirmatory screen), the “Efficacy (%) (confirmatory screen)” value is listed as -94%. In assay [1] (confirmatory screen, YES/NO), the “Confirm? (confirmatory screen)” value is “YES”. In addition, the “Curve Class (confirmatory screen)” value in assay [1] (setting [3]) was -1.1. The half-inhibitory concentration (IC50) in assay [1] (setting [4]) stood at 10 µM; in assay [1] (setting [7]), 20 µM; in assay [2] (counterscreen), 5.6 µM. Further, in assay [1] (setting [5]), the “Efficacy (%)” value was -73%. Also, the “Curve Class” value in assay [1] (setting [6]) is reported as -1.2. For the same molecule, the “Efficacy (%) (counterscreen)” value in assay [2] (counterscreen) is reported as -57%. The “Curve Class (counterscreen)” value in assay [2] (setting [8]) is listed as -1.2.

With `O=C(Nc1nc(-c2ccccc2)cs1)c1ccncc1NS(=O)(=O)c1cccs1.O=C(O)C(F)(F)F` [NCGC00345032-01], in assay [1] (confirmatory screen), the “Efficacy (%) (confirmatory screen)” value is -85%. The “Confirm? (confirmatory screen)” value in assay [1] (confirmatory screen, YES/NO) is given as “YES”. The “Curve Class (confirmatory screen)” value in assay [1] (setting [3]) is -1.2. For the same molecule, in assay [1] (setting [4]), the 50% inhibitory concentration (IC50) was found to be 25.1 µM. Further, in assay [1] (setting [9]), the “Efficacy (%)” value was -59%. Further, the “Curve Class” value in assay [1] (setting [10]) is recorded as -2.2. In addition, in assay [2] (counterscreen), the “Efficacy (%) (counterscreen)” value is given as -52%, the “Confirm? (counterscreen)” value is given as “YES” and the IC50 was 79.4 µM. Also, the “Curve Class (counterscreen)” value in assay [2] (setting [8]) was -2.2.

As for `COc1ccc(CC(=O)Nc2ccc(S(=O)(=O)Nc3cc(C)on3)cc2)cc1C.O=C(O)C(F)(F)F` [NCGC00244861-01], in assay [1] (confirmatory screen), the “Efficacy (%) (confirmatory screen)” value is -69%. For the same molecule, in assay [1] (confirmatory screen, YES/NO), the “Confirm? (confirmatory screen)” value is given as “YES”. For the same molecule, the “Curve Class (confirmatory screen)” value in assay [1] (setting [3]) is -2.4. The concentration for half-maximal inhibition (IC50) in assay [1] (setting [4]) came to 39.8 µM; in assay [1] (setting [11]), 11.2 µM. In addition, the “Efficacy (%)” value in assay [1] (setting [9]) is -19%. For the same molecule, the “Curve Class” value in assay [1] (setting [10]) is on record as -1.4. The “Efficacy (%) (counterscreen)” value in assay [2] (counterscreen) is listed as -14%. In addition, the “Confirm? (counterscreen)” value in assay [2] (counterscreen) is listed as “YES”. Further, in assay [2] (setting [8]), the “Curve Class (counterscreen)” value is recorded as 4.

Turning to `O=C1c2cccc(O)c2C(=O)c2c(O)cc(CO)cc21` [NCGC00163510-03], the “Curve Class (confirmatory screen)” value in assay [1] (setting [12]) is 4. Moreover, the “Efficacy (%) (confirmatory screen)” value in assay [1] (setting [13]) is given as -18%. In addition, in assay [1] (setting [5]), the “Efficacy (%)” value was -33%. Also, the “Curve Class” value in assay [1] (setting [6]) was -1.2. Moreover, in assay [1] (setting [7]), the half-inhibitory concentration (IC50) was 9.6 µM. The “Curve Class (counterscreen)” value in assay [2] (setting [14]) is on record as 4. Besides, the “Efficacy (%) (counterscreen)” value in assay [2] (setting [15]) is given as -8%.

Regarding `CN(C)CCc1c[nH]c2cccc(O)c12` [NCGC00247728-01], the “Confirm? (confirmatory screen)” value in assay [1] (Table S3, confirmatory screen, YES/NO call) was “YES”. The “Curve Class (confirmatory screen)” value in assay [1] (setting [12]) was -2.2. Further, the “Efficacy (%) (confirmatory screen)” value in assay [1] (setting [13]) is -101%. In addition, the IC50 in assay [1] (Table S3, confirmatory screen, read-out: IC50 [μM] (confirmatory screen)) is 112 µM; in assay [1] (setting [11]), 28.2 µM; in assay [2] (Table S3, counterscreen), 89.1 µM. In addition, in assay [1] (setting [9]), the “Efficacy (%)” value is on record as -105%. Also, in assay [1] (setting [10]), the “Curve Class” value is recorded as -2.3. The “Curve Class (counterscreen)” value in assay [2] (setting [14]) is -2.1. For the same molecule, the “Efficacy (%) (counterscreen)” value in assay [2] (setting [15]) is reported as -126%.

For the molecule `O=C(O)C(F)(F)F.Oc1cccc2cc(C3CC3)cnc12` [NCGC00188747-01], the “Curve Class (confirmatory screen)” value in assay [1] (setting [12]) turned out to be 4. Further, the “Efficacy (%) (confirmatory screen)” value in assay [1] (setting [13]) is on record as -17%. The “Efficacy (%)” value in assay [1] (setting [5]) is reported as -36%. Besides, the “Curve Class” value in assay [1] (setting [6]) is recorded as -1.2. Besides, in assay [1] (setting [7]), the IC50 was determined as 31.6 µM. For the same molecule, the “Curve Class (counterscreen)” value in assay [2] (setting [14]) turned out to be 4. The “Efficacy (%) (counterscreen)” value in assay [2] (setting [15]) is -25%.

For `N#Cc1ccc(NS(=O)(=O)c2ccc(NC(=O)Cc3ccc(F)c(Cl)c3)cc2)cc1.O=C(O)C(F)(F)F` [NCGC00343891-01], the “Curve Class (confirmatory screen)” value in assay [1] (setting [12]) is reported as 3. In addition, the “Efficacy (%) (confirmatory screen)” value in assay [1] (setting [13]) amounted to 72%. In addition, the “Efficacy (%)” value in assay [1] (setting [9]) is reported as -15%. Also, the “Curve Class” value in assay [1] (setting [10]) is listed as -1.4. Moreover, the IC50 in assay [1] (setting [11]) was 4 µM; in assay [2] (Table S3, counterscreen), 89.1 µM. Further, the “Curve Class (counterscreen)” value in assay [2] (setting [14]) was 3. Also, the “Efficacy (%) (counterscreen)” value in assay [2] (setting [15]) was found to be 154%.

For `COC[C@H]1OC(=O)c2coc3c2[C@@]1(C)C1=C(C3=O)[C@@H]2CCC(=O)[C@@]2(C)C[C@H]1OC(C)=O` [NCGC00163485-03], the concentration for half-maximal inhibition (IC50) in assay [1] (setting [4]) worked out at 28.2 µM. In addition, in assay [2] (counterscreen), the “Efficacy (%) (counterscreen)” value is -20% and the “Confirm? (counterscreen)” value is reported as “YES”. The “Curve Class (counterscreen)” value in assay [2] (setting [8]) was found to be 4.

Take `COc1cc(Nc2c(C#N)cnc3cc(OCCCN4CCN(C)CC4)c(OC)cc23)c(Cl)cc1Cl` [NCGC00241107-05]: in assay [1] (confirmatory screen), the “Efficacy (%) (confirmatory screen)” value is recorded as -73%. The “Confirm? (confirmatory screen)” value in assay [1] (confirmatory screen, YES/NO) is reported as “YES”. The “Curve Class (confirmatory screen)” value in assay [1] (setting [3]) was -2.2. Besides, the IC50 in assay [1] (setting [4]) was found to be 44.7 µM; in assay [1] (setting [7]), 50.1 µM; in assay [2] (counterscreen) it was 20 µM. Besides, the “Efficacy (%)” value in assay [1] (setting [5]) is recorded as -33%. Besides, in assay [1] (setting [6]), the “Curve Class” value was -2.2. Besides, in assay [2] (counterscreen), the “Efficacy (%) (counterscreen)” value is recorded as -37%. Also, the “Curve Class (counterscreen)” value in assay [2] (setting [8]) is -1.4.

For orientation: IC50 means the concentration that inhibits the measured activity by half.
